Test results taken from patent publication US9789102B2, “H3 receptor antagonist for use in the treatment of alzheimer's disease” (SANOFI, priority 2012, dated 2017).

Tests used:
[1] = test system: protein tau phosphorylation at AD-2 epitope; assay: Western blot of tau phosphorylation at AD-2 epitope after two-week administration (Example 2); type: in vivo; settings: THY-Tau22 mice
Experimental: For immunoblot analysis, frozen mouse tissues (either hippocampus or cortex) were homogenized using a Precellys 24 tissue homogenizer in 350 μl RIPA buffer from Cell Signaling (20 mM Tris-HCl (pH 7.5), 150 mM NaCl, 1 mM Na2 EDTA, 1 mM EGTA, 1% NP-40, 1% sodium deoxycholate, 2.5 mM sodium pyrophosphate, 1 mM beta-glycerophosphate, 1 mM Na3VO4, 1 μg/ml leupeptin) to which proteases inhibitors (Sigma cocktail 1% v/v) and phosphatases inhibitors (okadaic acid 1 μM, sodium fluoride 100 mM) were added. After centrifugation, 16000×g 4° C. for 10 minutes, protein content in supernatants was determined with BioRad DC Protein Assay kit, using BSA as a standard. […] Tau protein was detected using the following mouse antibody: AD-2 1/20.000^e (Biorad, 56484) which recognizes tau protein phosphorylated on Ser396 and Ser404. […]
Following incubation with primary antibodies, blots were rinsed in TBS Tween 0.1% and incubated for 1 hour at room temperature in an anti-mouse IgG horseradish peroxidase (HRP)-linked secondary antibody 1/10,000^e (GE healthcare, NA9310) diluted in 5% non-fat dry milk in TBS Tween 0.1%. […] Quantification of immunoreactive signal was performed using Multigauge V3.0 software (FUJIFILM). […]

[2] = test system: neurofibrillary tangles (NFTs); assay: NFTs formation by Gallyas silver staining with quantitative image analysis after six months in food; type: in vivo, THY-Tau22 mice
Description: 2-(Cyclohexylmethyl)-N-{2-[(2S)-1-methylpyrrolidin-2-yl]ethyl}-1,2,3,4-tetrahydroisoquinoline-7-sulfonamide difumarate monohydrate was administrated as a supplement in food at doses of 0.00034%, 0.0034% and 0.034% for six months in THY-Tau22 and wild type mice as follows: • Tg Veh (n=17) • Tg Active Ingredient—0.034% (n=17) • Tg Active Ingredient—0.0034% (n=17) • Tg Active Ingredient—0.00034% (n=17) • WT Veh (n=17) • WT Active Ingredient—0.034% (n=17) • WT Active Ingredient—0.0034% (n=17) • WT Active Ingredient—0.00034% (n=17) • WT groups treated with Active Ingredient are not used in the biochemical and histological studies.
After mice were decapitated, brains were removed and one hemibrain (used for histopathological studies) was immersion-postfixed for seven days at 4° C. with 4% formaldehyde (Carlo Erba/code 415691). The other hemibrain was prepared for biochemical quantitative measurements.
Post-fixed hemibrains were incubated in phosphate-buffered saline (PBS, P 3813-10PAK, Sigma), transferred to a 20% sucrose solution (code 27480.294—Prolabo) for 48 hours at 4° C. to ensure good cryopreservation of tissues during subsequent freezing. For freezing, hemibrains were immersed for one minute in isopentane solution (Ref. No. 24872-323—Prolabo) cooled with dry ice to between −25° C. and −30° C. and then stored at −25° C.
The entire hemibrains were cut with a cryostat (Microm, HM560). Serial sagittal brain tissue sections were collected onto Superfrost plus microscope glass slides (VWR) and then stored at −20° C. (sections of 20 μm of thickness), or placed in PBS-sodium azide 0.1% (S-2002, Sigma) containing wells to avoid any contamination and stored at 4° C. (sections of 30 μm of thickness).
NFTs are a major defining neuropathological feature of tau pathology in AD. They consist of bundles of paired helical filaments and straight filaments and their main constituent is the hyperphosphorylated microtubule-associated protein tau. Gallyas staining is generally used to stain neurofibrillary pathology (Sun A. et al., J. Histochem Cytochem, 2002, 50, 4, pp. 463-472).
A series of 20 μm hemibrain sections (directly mounted on slides) per mice was used for Gallyas staining (Braak and Braak, 1991, Brain Pathology, 1, pp. 213-216). The detailed protocol is as follows:
The following reagents are used: periodic acid (Sigma Ref. No. P 7875); sodium hydroxide (Prolabo Ref. No. 1737-1000); potassium iodide (Merck Ref. No. 1.05043.1000); silver nitrate (Sigma Ref. No. S.8157); 100% ascetic acid (Prolabo Ref. No. 20 104.298); sodium carbonate, anhydrous (Merck Ref. No. 1.06392-0500); ammonium nitrate (Prolabo Ref. No. 21280-293); silicotungstic acid (Sigma Ref. No. T 2786); 40% formaldehyde (Carlo Erba Ref. No. 415661); sodium thiosulfate (Sigma Ref. No. 21724-500 g).
A first stock solution (No. 1) was prepared by dissolving 50 g of anhydrous sodium carbonate in 1000 ml of deionized water. A second stock solution (No. II) was prepared by dissolving 2 g of ammonium nitrate, 2 g of silver nitrate, and 10 g of silicotungstic acid in 1000 ml of deionized water. A third stock solution (No. III) was prepared by dissolving 2 g of ammonium nitrate, 2 g of silver nitrate, 10 g of silicotungstic acid, and 7.3 ml of commercial 37% formaldehyde solution in 1000 ml of deionized water. The stock solutions are stable and can be stored in opaque containers.
Each of the following steps in the method are carried out with stirring. • 1. Pretreatment: The sections on slides were immersed in a solution of 5% periodic acid in water for 5 minutes, and then rinsed twice for 5 minutes in deionized water. • 2. Argentation: The silver iodide solution is freshly prepared by dissolving 4 g of sodium hydroxide in 50 ml of distilled water and adding 10 g of potassium iodide, which is mixed and allowed to dissolve completely. 3.5 ml of a solution of 1% silver nitrate in water is added while stirring. […]

## CN1CCC[C@H]1CCNS(=O)(=O)c1ccc2c(c1)CN(CC1CCCCC1)CC2 [2-(cyclohexylmethyl)-N-{2-[(2S)-1-methylpyrrolidin-2-yl]ethyl}-1,2,3,4-tetrahydroisoquinoline-7-sulfonamide difumarate monohydrate]
[1]; 0.002% in drinking water
  effect on protein tau phosphorylation at AD-2 epitope in the hippocampus: did not elicit any effect
[1]; 0.02% in drinking water
  effect on protein tau phosphorylation at AD-2 epitope in the hippocampus: did not elicit any effect
[2]; 0.00034% in food
  protective effect against pathological neurons (tangles number), all analyzed brain ROIs: no protective effect
[2]; 0.0034% in food, n=9
  NFTs formation in CA1 hippocampal subarea, vs vehicle: statistical significant decrease
  NFTs formation in cortex, vs vehicle: statistical significant decrease
[2]; 0.0034% in food, significant
  decrease in the number of tangles, CA1 hippocampal subarea: −25%
  decrease of the number of pathological neurons (NFTs, Gallyas), cortex: −48%
[2]; 0.0034% in food, statistically non-significant
  decrease in NFTs, amygdala: −19%
[2]; 0.034% in food, n=9
  NFTs formation in CA1 hippocampal subarea, vs vehicle: statistical significant decrease
  NFTs formation in amygdala, vs vehicle: statistical significant decrease
  NFTs formation in cortex, vs vehicle: statistical significant decrease
[2]; 0.034% in food, significant
  decrease in NFTs, amygdala: −31%
  decrease in the number of tangles, CA1 hippocampal subarea: −22%
  decrease of the number of pathological neurons (NFTs, Gallyas), cortex: −41%
